This is an account of results in publication PMC2885599 (Current Chemical Genomics, 2010).

One assay relates to phosphorylated Met. The settings on record: read-out: IC50 on phosphorylated Met; cited from earlier work.
The test system of another assay is unphosphorylated Met. Conditions: cited from earlier work.
Assay [1] concerns phosphorylated enzyme (c-Met). Conditions: phosphorylated vs unphosphorylated enzyme; cited from earlier work.
Assay [2] has as its system SNU5 gastric cancer cell line in which c-Met is amplified. In words: SNU5 proliferation assay. The class given is cell-based. The settings on record: Homo sapiens, SNU-5, read-out: IC50 in SNU5 proliferation assays.
Another assay has as its target unphosphorylated c-Met (Homo sapiens, UniProt P08581). In words: c-Met kinase HTRF assay, unphosphorylated form. The class given is biochemical. (Time-resolved FRET reads energy transfer from a long-lived donor to a nearby acceptor.)
For another assay, the target named is phosphorylated c-Met (Homo sapiens, UniProt P08581). As to the kind of experiment: c-Met kinase HTRF assay, phosphorylated form. The settings on record: IC50 on the phosphorylated form.
Chain of phosphorylated c-Met (P08581 956-1390 limits assumed): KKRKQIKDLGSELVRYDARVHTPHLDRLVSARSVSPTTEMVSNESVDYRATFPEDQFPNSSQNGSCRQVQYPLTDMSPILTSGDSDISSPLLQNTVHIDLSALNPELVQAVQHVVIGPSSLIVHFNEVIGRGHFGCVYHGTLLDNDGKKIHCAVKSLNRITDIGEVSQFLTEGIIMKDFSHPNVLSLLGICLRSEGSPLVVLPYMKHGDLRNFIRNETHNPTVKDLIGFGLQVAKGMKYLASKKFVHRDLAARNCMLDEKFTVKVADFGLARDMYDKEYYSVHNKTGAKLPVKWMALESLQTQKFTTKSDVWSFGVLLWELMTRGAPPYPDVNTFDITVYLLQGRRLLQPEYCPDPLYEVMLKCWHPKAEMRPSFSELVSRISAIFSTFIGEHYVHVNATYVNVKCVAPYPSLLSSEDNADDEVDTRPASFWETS

Chain of unphosphorylated c-Met (P08581 956-1390 limits assumed): as above

`COc1cc2c(Oc3ccc(-c4cnc(Cc5ccccc5)n(C)c4=O)cc3F)ccnc2cc1OCCCN1CCOCC1` [AM7, 5-(3-fluoro-4-((6-(methyloxy)-7-((3-(4 morpholinyl)prpyl)oxy)-4-quinolinyl)oxy)phenyl)-3-methyl-2-(phenylmethyl)-4(3H)-pyrimidin-one]: the IC50 was 17 nM with phosphorylated Met and 5 nM in the assay on unphosphorylated Met (read-out: IC50 on unphosphorylated Met). Moreover, the “fold more potent on unphosphorylated Met” value in the assay on unphosphorylated Met is reported as “more than 3 fold”.
Take `CN(C[C@@H]1COCCO1)S(=O)(=O)Nc1ccc2ccc3ncc(-c4cnn(C)c4)cc3c(=O)c2c1` [MK2461]: the “binds to the phosphorylated enzyme tighter” value in assay [1] is 6 fold.
Regarding `Cc1[nH]c(/C=C2\C(=O)Nc3ccc(S(=O)(=O)N(C)c4cccc(Cl)c4)cc32)c(C)c1C(=O)N1CCN(C)CC1` [SU11274], the IC50 was found to be 30 nM in assay [2] and 275 nM at phosphorylated c-Met. In addition, the “difference in potency, phosphorylated vs unphosphorylated form” value at unphosphorylated c-Met was determined as 55 fold.
